Values after ≈ are worked out from the molar mass of the structure shown. No end group written: not given here.
Tests used:
[1] = in vitro; settings: human, WI38 normal lung fibroblast cells, LD50 WI38, WI38 normal lung fibroblast line, MTT, 24 hours with peptide
[2] = in vitro; type: cell-based, human; settings: human, human red blood cells, pH 7, hemolytic assay, concentration at 50% hemolysis, 1 hour at 37° C.; read-out: LD50
Experimental: This hemolytic assay is based upon that presented in Journal of Peptide Research 53: 82-90 (1999). […] All procedures were performed according to safety protocols pertaining to the handling and disposal of human body fluids.
Red blood cells (RBCs) were washed three times with PBS (35 mM phosphate buffer 0.15 M NaCl, pH 7.0). RBCs suspended in PBS (0.4% (v/v); about 10 ml per 15 peptides) were prepared. Suspensions (100 μl) were aliquoted to each sample and control tube. Serially diluted peptide solutions (100 μl) were pipetted into the sample tubes. Negative control tubes contained 100 μl PBS; positive control tubes contained 100 μl 1% Triton-X100 detergent. All tubes were incubated for 1 hour at 37° C. The tubes were removed from the incubator and centrifuged at 1000 g for 5 minutes. Supernatant (100 μl) was pipetted to a 96-well polyvinyl chloride plate. The absorbance at 414 nm (A414) was measured, and used to calculate the percent hemolysis according to the following formula. [formula]

[3] = system: HeLaS3; experiment: Anti-cancer assay, MTT, LD50; type: cell-based; settings: 24 hours with peptide, cervical carcinoma
Source text: (§1) Numbers are LD50 values (μg/mL).

[4] = system: MCF7; experiment: Anti-cancer assay, MTT, LD50; type: cell-based; settings: MCF7 breast adenocarcinoma line, MTT, 24 hours with peptide
Source text: as §1

[5] = system: H1299; experiment: Anti-cancer assay, MTT, LD50; type: cell-based; settings: 24 hours with peptide, lung large cell carcinoma
Source text: as §1

[6] = system: SW480; experiment: Anti-cancer assay, MTT, LD50; type: cell-based; settings: SW480 colon adenocarcinoma line, 24 hours with peptide
Source text: as §1

[7] = system: PC3; experiment: Anti-cancer assay, MTT, LD50; type: cell-based; settings: 24 hours with peptide, prostate adenocarcinoma
Source text: as §1

[8] = system: BMKC; experiment: Anti-cancer assay, MTT, LD50; type: cell-based; settings: BMKC cloned melanoma line, 24 hours with peptide
Source text: as §1

[9] = system: WI38; settings: MTT, 24 hours with peptide; normal fibroblast line
[10] = system: Pseudomonas aeruginosa ATCC 9027; experiment: Antimicrobial assay I, MIC by OD measurement; type: cell-based; settings: 37° C. for 24 hours, absorbance 620 nm
Source text: (§2) The data for the following antimicrobial assay of the peptides have been obtained by making OD measurements in in vitro cell culture experiments with and without added peptide. The protocol used is as follows.
(§3) Cell lines included Staphylococcus aureus ATCC 6538 or 25923, Pseudomonas aeruginosa ATCC 9027 or 27853. Medium used were Antibiotic Medium 3 (Difco), Antibiotic Medium 2 (Difco), and 0.85% saline. Controls used were physiological saline, and gentamycin at 50, 25, 10, 5, 1, and 0.1 ppm.
(§4) Absorbance was read at 620 nm after shaking to resuspend cells.
(§5) Staph6538 is Staphylococcus aureus ATCC accession number 6538; paerug9027 is Pseudomonas aeruginosa ATCC accession number 9027, yeast is Saccharomyces cerevisiae.

[11] = system: Staphylococcus aureus ATCC 6538; experiment: Antimicrobial assay I, MIC by OD measurement; type: cell-based; settings: 37° C. for 24 hours, absorbance 620 nm
Source text: as §2, §3, §4, §5

[12] = system: yeast (Saccharomyces cerevisiae); experiment: Antimicrobial assay I, yeast assay in RPMI 1640; type: cell-based; settings: RPMI 1640 media
Experimental: as §2, §4
The yeast assay was performed in RPMI 1640 media (pH 7.0 at 25° C.).
as §5

[13] = system: P. aeruginosa H374; type: cell-based, Pseudomonas aeruginosa
Experimental: The synergistic effects of the inventive peptides with either chloramphenicol or nalidixic acid against efflux mutants of Pseudomonas aeruginosa were investigated. The MIC values were determined for either nalidixic acid or chloramphenicol alone as baselines. Peptides were added at their ¼ MIC concentration, and the concentration of either nalidixic acid or chloramphenicol to arrive at the MIC was determined. […] The fractional inhibitory concentration (FIC) index was used to determine synergy between peptides and antibiotics. Two-fold serial dilutions of antibiotic were tested in the presence of a constant amount of peptide, equal to one quarter of peptide MIC. The FIC index was determined as follows: FIC=0.25+MICantibiotic in combination/MICantibiotic alone. An FIC index of 0.5 or less is considered as synergy.

| Compound | CC50 at 24 h [1] [µg/mL] | HC50 at 1 h [2] [µg/mL] | HeLaS3 LD50 [3] | LD50 MCF7 [4] [µg/mL] | H1299 LD50 [5] | LD50 SW480 [6] | PC3 LD50 [7] | LD50 BMKC [8] | WI38 LD50 [9] [µg/mL] | paerug9027 (MIC) [10] | staph6538 (MIC) [11] | yeast (MIC or MFC) [12] | MIC Cm-comb. ([13]; MIC of chloramphenicol with peptide at ¼ MIC) [µg/mL] | FIC Index ([13]; chloramphenicol + peptide at ¼ MIC, 0.5 or less = synergy) |
| --- | --- | --- | --- | --- | --- | --- | --- | --- | --- | --- | --- | --- | --- | --- |
| CC(C)C[C@H](NC(=O)[C@H](C)NC(=O)[C@H](CCCCN)NC(=O)[C@H](CC(C)C)NC(=O)[C@H](C)NC(=O)[C@H](CC(C)C)NC(=O)[C@H](C)NC(=O)[C@H](CCCCN)NC(=O)[C@H](CC(C)C)NC(=O)[C@H](C)NC(=O)[C@H](CC(C)C)NC(=O)[C@H](C)NC(=O)[C@H](CC(C)C)NC(=O)[C@H](CCCCN)NC(=O)[C@H](C)NC(=O)[C@H](CC(C)C)NC(=O)[C@H](CCCCN)NC(=O)[C@H](CCCCN)NC(=O)[C@H](C)NC(=O)[C@H](CC(C)C)NC(=O)[C@H](CCCCN)NC(=O)[C@H](CCCCN)NC(=O)[C@H](CC(C)C)NC(=O)[C@H](CCCCN)NC(=O)[C@H](CCCCN)NC(=O)[C@H](C)NC(=O)[C@H](CC(C)C)NC(=O)[C@H](CCCCN)NC(=O)[C@H](CCCCN)NC(=O)[C@H](C)NC(=O)[C@@H](N)Cc1ccccc1)C(N)=O [P98, reference compound] | 47 (≈ 14 µM) | 60 | 175 µg/mL | 96 | 53 µg/mL | 125 µg/mL | 52 µg/mL | 94 µg/mL | 47 | > (> indicates greater than 200 μg/mL) | > (> indicates greater than 200 μg/mL) | > (> indicates greater than 200 μg/mL) |  |  |
| FAKLLAKLAK-NH2 [P123] | 600 | 1000 | 940 µg/mL | 615 | > (> indicates greater than 1000) | > (> indicates greater than 1000) | > (> indicates greater than 1000) | 635 µg/mL | 600 | 200 µg/mL | 50 µg/mL | 100 µg/mL |  |  |
| FAKLLAKFLKKAL-NH2 [P113] | 170 | 1000 | 190 µg/mL | 150 | 50 µg/mL | 180 µg/mL | 240 µg/mL | 115 µg/mL | 170 | 200 µg/mL | 10 µg/mL | 200 µg/mL | 16 | 1.25 |
| FAKKLAKKLKKLAKKLAKKWKL-NH2 [P70] | 34 | 80 | 28 µg/mL | 44 | 63 µg/mL | 11 µg/mL | 82 µg/mL | 94 µg/mL | 34 | > (> indicates greater than 200 μg/mL) | 10 µg/mL | 100 µg/mL |  |  |
| FAKLWAKLAFGKGIGKVGKKLL-NH2 [P135] | 110 | 900 | 215 µg/mL | 54 | 115 µg/mL | 80 µg/mL | 310 µg/mL | 155 µg/mL | 110 | 10 µg/mL | 15 µg/mL | 50 µg/mL |  |  |
| FAKLLAKLAKKGL-NH2 [P152] | 620 | 880 | > (> indicates greater than 1000) | 430 | 410 µg/mL | 740 µg/mL | > (> indicates greater than 1000) | > (> indicates greater than 1000) | 620 | 50 µg/mL | 100 µg/mL | 100 µg/mL |  |  |

— US20050209157A1, “Short bioactive peptides and methods for their use” (priority 2001, published 2005)
